Laboratory results: patent publication US8192962B2, “Processes for detecting toxic substances” (Daikin Industries, Ltd., priority 2001, dated 2012)

System: Genes belonging to other category
Assay: DNA chip mRNA expression in yeast, genes belonging to other category (Table 9)
Type: cell-based, Saccharomyces cerevisiae S288C
Description: Yeast (Saccharomyces cerevisiae S288C (α SUC2mal mel gap2 CUP1)) were incubated at 25° C. on YPD medium (yeast extract 1%, polypepton 2%, glucose 2%). One of toxic chemical substances was added to the cells at logarithmic growth phase, and the cells were further incubated for two hours. Cells were cultured without any chemical substance in the same condition, and were used as control. Concentrations of the chemical substances were defined to inhibit the growth of the yeast but not lead to death.
After completion of the incubation, the culture was centrifuged to collect the cells. To the cells, sodium acetate buffer (50 mM sodium acetate, 10 mM EDTA, 1% SDS) was added, and the mixture was shaken at 65° C. for five minutes, followed by returning to room temperature, and obtaining the supernatant, of which the procedures were repeated two times. To the supernatant, ½ amount of a solution of phenol/chloroform was added, and the mixture was centrifuged to give a supernatant, which was added with an equal amount of chloroform, and the mixture was centrifuged to give a supernatant. To the supernatant, an equal amount of isopropanol containing 0.3 M sodium acetate was added, and the mixture was allowed to stand at room temperature for 30 minutes, after which the mixture was centrifuged to give a sediment of the whole RNAs. Seventy % ethanol was added to the sediment, and the mixture was again centrifuged to give a sediment, which was then dried and dissolved in water. mRNA was isolated from the whole RNAs as followings. In view of the fact that a poly A chain is attached to the 3′ terminus of mRNA, a polynucleotide having a poly T structure which was immobilized on the surface of latex beads was used to trap the mRNA, and then the mRNA was washed and eluted with spine column (Oligotex-dT30<Super>mRNA Purification Kit, Takara). Reverse transcription of the mRNA was conducted with a reverse transcriptase (Super Script II Reverse Transcriptase; catalogue No. 18064-014, GibcoBRL) using fluorescence-labeled nucleotides to give cDNAs that were introduced with Cy3-dUTP or Cy5-dUTP during the reverse transcription.
The labeled cDNAs were dissolved in TE buffer (10mM Tris-HCl/1 mM EDTA, pH8.0), and the solution was dropped on the DNA chip containing the whole genes of yeast (DNA Chip Research Inc. Japan) so that the cDNAs were hybridized on the DNA chip at 65° C. for over 12 hours. The fluoresces intensity of the DNA chip was read with a scanner, and the ratio relative to the fluorescence intensity resulting from the absence of chemical substance was estimated as the following, which is shown in Tables 1 to 9: […]

## [Cl][Pb][Cl] [(4), PbCl2]
Yeast gene YAR010C
  The level of expressed mRNA in the presence of chemical substance/The level of expressed mRNA in the absence of chemical substance: 0.8
Yeast gene YBL005W-A
  The level of expressed mRNA in the presence of chemical substance/The level of expressed mRNA in the absence of chemical substance: 0.9
Yeast gene YBL041W
  The level of expressed mRNA in the presence of chemical substance/The level of expressed mRNA in the absence of chemical substance: 1.0
Yeast gene YBL043W
  The level of expressed mRNA in the presence of chemical substance/The level of expressed mRNA in the absence of chemical substance: 1.3
Yeast gene YBL078C
  The level of expressed mRNA in the presence of chemical substance/The level of expressed mRNA in the absence of chemical substance: 2.6
Yeast gene YBR214W
  The level of expressed mRNA in the presence of chemical substance/The level of expressed mRNA in the absence of chemical substance: 2.0
Yeast gene YCL020W
  The level of expressed mRNA in the presence of chemical substance/The level of expressed mRNA in the absence of chemical substance: 1.1
Yeast gene YCL027W
  The level of expressed mRNA in the presence of chemical substance/The level of expressed mRNA in the absence of chemical substance: 1.0
Yeast gene YCR071C
  The level of expressed mRNA in the presence of chemical substance/The level of expressed mRNA in the absence of chemical substance: 0.8
Yeast gene YCR088W
  The level of expressed mRNA in the presence of chemical substance/The level of expressed mRNA in the absence of chemical substance: 0.9
Yeast gene YDL008W
  The level of expressed mRNA in the presence of chemical substance/The level of expressed mRNA in the absence of chemical substance: 1.1
Yeast gene YDL238C
  The level of expressed mRNA in the presence of chemical substance/The level of expressed mRNA in the absence of chemical substance: 1.7
Yeast gene YDR055W
  The level of expressed mRNA in the presence of chemical substance/The level of expressed mRNA in the absence of chemical substance: 2.8
Yeast gene YDR084C
  The level of expressed mRNA in the presence of chemical substance/The level of expressed mRNA in the absence of chemical substance: 1.1
Yeast gene YDR085C
  The level of expressed mRNA in the presence of chemical substance/The level of expressed mRNA in the absence of chemical substance: 3.4
Yeast gene YDR104C
  The level of expressed mRNA in the presence of chemical substance/The level of expressed mRNA in the absence of chemical substance: 1.2
Yeast gene YDR115W
  The level of expressed mRNA in the presence of chemical substance/The level of expressed mRNA in the absence of chemical substance: 1.5
Yeast gene YDR259C
  The level of expressed mRNA in the presence of chemical substance/The level of expressed mRNA in the absence of chemical substance: 1.4
Yeast gene YDR315C
  The level of expressed mRNA in the presence of chemical substance/The level of expressed mRNA in the absence of chemical substance: 1.3
Yeast gene YDR358W
  The level of expressed mRNA in the presence of chemical substance/The level of expressed mRNA in the absence of chemical substance: 1.1
Yeast gene YDR388W
  The level of expressed mRNA in the presence of chemical substance/The level of expressed mRNA in the absence of chemical substance: 1.0
Yeast gene YDR432W
  The level of expressed mRNA in the presence of chemical substance/The level of expressed mRNA in the absence of chemical substance: 1.4
Yeast gene YDR481C
  The level of expressed mRNA in the presence of chemical substance/The level of expressed mRNA in the absence of chemical substance: 0.7
Yeast gene YDR510W
  The level of expressed mRNA in the presence of chemical substance/The level of expressed mRNA in the absence of chemical substance: 1.3
Yeast gene YEL042W
  The level of expressed mRNA in the presence of chemical substance/The level of expressed mRNA in the absence of chemical substance: 0.9
Yeast gene YEL066W
  The level of expressed mRNA in the presence of chemical substance/The level of expressed mRNA in the absence of chemical substance: 2.2
Yeast gene YER039C
  The level of expressed mRNA in the presence of chemical substance/The level of expressed mRNA in the absence of chemical substance: 4.1
Yeast gene YER107C
  The level of expressed mRNA in the presence of chemical substance/The level of expressed mRNA in the absence of chemical substance: 0.6
Yeast gene YER130C
  The level of expressed mRNA in the presence of chemical substance/The level of expressed mRNA in the absence of chemical substance: 0.8
Yeast gene YFL022C
  The level of expressed mRNA in the presence of chemical substance/The level of expressed mRNA in the absence of chemical substance: 0.6
Yeast gene YFL028C
  The level of expressed mRNA in the presence of chemical substance/The level of expressed mRNA in the absence of chemical substance: 1.5
Yeast gene YFL043C
  The level of expressed mRNA in the presence of chemical substance/The level of expressed mRNA in the absence of chemical substance: 1.2
Yeast gene YGL158W
  The level of expressed mRNA in the presence of chemical substance/The level of expressed mRNA in the absence of chemical substance: 12.9
Yeast gene YGL229C
  The level of expressed mRNA in the presence of chemical substance/The level of expressed mRNA in the absence of chemical substance: 0.8
Yeast gene YGR136W
  The level of expressed mRNA in the presence of chemical substance/The level of expressed mRNA in the absence of chemical substance: 0.7
Yeast gene YGR189C
  The level of expressed mRNA in the presence of chemical substance/The level of expressed mRNA in the absence of chemical substance: 3.5
Yeast gene YGR213C
  The level of expressed mRNA in the presence of chemical substance/The level of expressed mRNA in the absence of chemical substance: 6.8
Yeast gene YGR257C
  The level of expressed mRNA in the presence of chemical substance/The level of expressed mRNA in the absence of chemical substance: 1.1
Yeast gene YHR004C
  The level of expressed mRNA in the presence of chemical substance/The level of expressed mRNA in the absence of chemical substance: 1.1
Yeast gene YHR071W
  The level of expressed mRNA in the presence of chemical substance/The level of expressed mRNA in the absence of chemical substance: 1.6
Yeast gene YHR139C
  The level of expressed mRNA in the presence of chemical substance/The level of expressed mRNA in the absence of chemical substance: 9.3
Yeast gene YHR142W
  The level of expressed mRNA in the presence of chemical substance/The level of expressed mRNA in the absence of chemical substance: 0.8
Yeast gene YIL123W
  The level of expressed mRNA in the presence of chemical substance/The level of expressed mRNA in the absence of chemical substance: 1.5
Yeast gene YIL140W
  The level of expressed mRNA in the presence of chemical substance/The level of expressed mRNA in the absence of chemical substance: 1.4
Yeast gene YJL073W
  The level of expressed mRNA in the presence of chemical substance/The level of expressed mRNA in the absence of chemical substance: 0.7
Yeast gene YJL089W
  The level of expressed mRNA in the presence of chemical substance/The level of expressed mRNA in the absence of chemical substance: 0.8
Yeast gene YJL116C
  The level of expressed mRNA in the presence of chemical substance/The level of expressed mRNA in the absence of chemical substance: 1.9
Yeast gene YJR004C
  The level of expressed mRNA in the presence of chemical substance/The level of expressed mRNA in the absence of chemical substance: 0.6
Yeast gene YJR086W
  The level of expressed mRNA in the presence of chemical substance/The level of expressed mRNA in the absence of chemical substance: 1.4
Yeast gene YKL008C
  The level of expressed mRNA in the presence of chemical substance/The level of expressed mRNA in the absence of chemical substance: 0.8
